This is an account of results in US8119647B2, “Fused pyrimidineone compounds as TRPV3 modulators” (Glenmark Pharmaceuticals S.A., priority 2008, dated 2012).

The target of the assay is T1, Human TRPV3 (Homo sapiens, UniProt Q8NET8).
T1 construct: expressed in transfected cells; host or cells: CHO cells (G-418 selection)
T1 sequence (Q8NET8 1-790): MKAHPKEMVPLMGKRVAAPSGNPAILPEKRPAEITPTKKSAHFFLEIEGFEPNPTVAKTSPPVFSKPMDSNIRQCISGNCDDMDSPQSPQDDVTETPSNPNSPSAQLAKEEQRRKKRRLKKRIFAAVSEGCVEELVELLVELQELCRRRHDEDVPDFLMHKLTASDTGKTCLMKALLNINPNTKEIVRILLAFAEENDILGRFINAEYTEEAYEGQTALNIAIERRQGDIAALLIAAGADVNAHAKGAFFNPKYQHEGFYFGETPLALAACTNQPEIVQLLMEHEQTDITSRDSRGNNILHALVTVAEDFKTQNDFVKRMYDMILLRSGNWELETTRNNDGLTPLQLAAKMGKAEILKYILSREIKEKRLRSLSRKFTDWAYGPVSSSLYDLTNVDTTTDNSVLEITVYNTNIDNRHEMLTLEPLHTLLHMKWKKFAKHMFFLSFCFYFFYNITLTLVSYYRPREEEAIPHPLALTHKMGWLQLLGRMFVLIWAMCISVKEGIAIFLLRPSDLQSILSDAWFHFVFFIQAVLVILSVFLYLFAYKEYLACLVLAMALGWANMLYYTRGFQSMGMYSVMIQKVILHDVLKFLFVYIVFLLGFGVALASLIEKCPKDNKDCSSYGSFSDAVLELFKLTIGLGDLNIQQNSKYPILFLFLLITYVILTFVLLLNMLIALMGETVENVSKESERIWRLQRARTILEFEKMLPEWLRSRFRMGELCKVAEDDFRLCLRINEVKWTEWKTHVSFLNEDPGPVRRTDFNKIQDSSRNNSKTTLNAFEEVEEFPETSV
The experiment in a line: Screening for TRPV3 antagonist using the 45Calcium uptake assay (inhibition of 2-APB induced cellular uptake of radioactive calcium). Format: cell-based. The note with it: for Percentage inhibition at 1.0 μM / inhibition at 1 µM: 1.0 μM test compound; for inhibition at 1 µM: read-out: Percentage inhibition at 1.0 μM; for inhibition at 10 µM: read-out: Percentage inhibition at 10.0 μM; for IC50: class symbols. An excerpt:
The illustrative examples of the present invention are screened for TRPV3 activity according to a modified procedure described in Tóth, A., Kedei, N., Wang, Y. and Blumberg, P. M. Life Sciences (2003), 73, 487-498. The screening of the compounds can be carried out by other methods and procedures known to a person skilled in the art. Such screening methods may be found in (a) Hu, H.-Z. et al. J. Biol. Chem. (2004), 279, 35741-35747; (b) Smith, G. D. et al. Nature (2002), 418, 186-190; (c) Peier, A. M. et al. Science (2002), 296, 2046-2049.
Screening for TRPV3 Antagonist Using the ^45Calcium Uptake Assay:
The inhibition of TRPV3 receptor activation was followed as inhibition of 2-aminoethoxydiphenylborate (2-APB) induced cellular uptake of radioactive calcium. Test compounds were dissolved in dimethyl sulfoxide (DMSO) to prepare 20 mM stock solution and then diluted using plain medium with DMEM/F-12 containing 1.8 mM CaCl2 to get desired concentration. Final concentration of DMSO in the reaction was 0.5% (v/v). Human TRPV3 expressing CHO cells were grown in DMEM/F-12 medium with 10% FBS, 1% penicillin-streptomycin solution, 400 μg/ml of G-418. Cells were seeded 24 h prior to the assay in 96 well plates so as to get ˜50,000 cells per well on the day of experiment. Cells were treated with test compounds for 10 minutes followed by addition of 2-APB at a final concentration of 500 μM and 5 μCi/ml ^45Ca^+2 for 4 minutes. Cells were washed and lysed using buffer containing 1% Triton X-100, 0.1% deoxycholate and 0.1% SDS. Radioactivity in the lysate was measured in Packardt Top count after addition of liquid scintillant. Concentration response curves were plotted as a % of maximal response obtained in the absence of test antagonist. IC50 value was calculated from concentration response curve by nonlinear regression analysis using GraphPad PRISM software.
Percentage inhibition at concentrations of 1.0 μM and 10.0 μM are given in the table along with IC50 (nM) values for selected examples.

Setting [1] is: human TRPV3 expressing CHO cells, 2-APB 500 μM.
Setting [2] is: 10.0 μM test compound, human TRPV3 expressing CHO cells, 2-APB 500 μM.

Like-named read-outs stand apart in the source and are kept apart here. Bounds are passed on as bounds.

The inhibition is the change of the read-out against control, counted positive when it falls. By IC50 is commonly meant the concentration needed to halve the response being measured.

With `CCOCCOc1cccc(/C=C/c2nc3sccn3c(=O)c2-c2ccc(OC(F)(F)F)cc2)c1OCC1CC1` [Example 62, 7-{(E)-2-[2-(Cyclopropylmethoxy)-3-(2-ethoxyethoxy)phenyl]-1-ethenyl}-6-(4-trifluoro-methoxyphenyl)-5H-[1,3]thiazolo[3,2-a]pyrimidin-5-one], under setting [1], the “Percentage inhibition at 1.0 μM” value was 30.6%. Moreover, the “Percentage inhibition at 10.0 μM” value under setting [2] is recorded as 55.9%.
`COc1cccc(/C=C/c2nc3sccn3c(=O)c2-c2ccc(OC(F)(F)F)cc2)c1OCC(C)(C)C` [Example 52, 7-[(E)-2-{3-Methoxy-2-neopentyloxyphenyl}-1-ethenyl]-6-[4-(trifluoromethoxy)phenyl]-5H-[1,3]thiazolo[3,2-a]pyrimidin-5-one]: under setting [1], the inhibition at 1 µM was 78.4% and the IC50 is less than 250 nM. Also, the inhibition at 10 µM under setting [2] was found to be 90.3%.
For `COCCOc1c(/C=C/c2nc3sccn3c(=O)c2-c2ccc(OC(F)(F)F)cc2)cccc1OC` [Example 73, 7-[(E)-2-{3-Methoxy-2-(2-methoxyethoxy)phenyl}-1-ethenyl]-6-[4-(trifluoromethoxy)-phenyl]-5H-[1,3]thiazolo[3,2-a]pyrimidin-5-one], in that order: 79.2%, 250 to 500 nM and 94.9%.
Take `COc1cccc(/C=C/c2nc3sccn3c(=O)c2-c2ccc(C#N)cc2)c1OCc1ccccn1` [Example 21]: the “Percentage inhibition at 10.0 μM” value amounted to 11.60%. Also, under setting [1], the “Percentage inhibition at 1.0 μM” value was determined as 14.88%.
In the case of `COc1cccc(/C=C/c2nc3sc(Cl)cn3c(=O)c2-c2ccc(N(C)C)cc2)c1OCC(C)C` [Example 81, 2-Chloro-6-[4-(dimethylamino)phenyl]-7-[(E)-2-(2-isobutoxy-3-methoxyphenyl)vinyl]-5H-[1,3]thiazolo[3,2-a]pyrimidin-5-one], under setting [1], the inhibition at 1 µM was determined as 64.3% and the IC50 lay within 250 to 500 nM. Also, under setting [2], the inhibition at 10 µM is 78.5%.
Take `CCCCCOc1c(/C=C/c2nc3sccn3c(=O)c2-c2ccc(C#N)cc2)cccc1OC` [Example 10, 4-{7-[(E)-2-(3-Methoxy-2-pentyloxyphenyl)-1-ethenyl]-5-oxo-5H-[1,3]-thiazolo[3,2-a]pyrimidin-6-yl}benzonitrile]: under setting [1], the inhibition at 1 µM was 74.8% and the IC50 fell in the range of 250 to 500 nM. In addition, under setting [2], the inhibition at 10 µM is 92.9%.
In the case of “7-[(E)-2-(4-Chlorophenyl)vinyl]-6-phenyl-5H-[1,3]thiazolo[3,2-a]pyrimidin-5-one [Example 1]”, the “Percentage inhibition at 1.0 μM” value under setting [1] worked out at 6.9%. Further, the “Percentage inhibition at 10.0 μM” value under setting [2] is on record as 14.4%.
For the molecule `COc1cccc(/C=C/c2nc3scc(C(F)(F)F)n3c(=O)c2-c2ccc(C#N)cc2)c1OCC(C)(C)C` [Example 82, 4-{7-[(E)-2-(3-Methoxy-2-neopentyloxyphenyl)-1-ethenyl]-5-oxo-3-(trifluoromethyl)-5H-[1,3]thiazolo[3,2-a]pyrimidin-6-yl}benzonitrile], the inhibition at 1 µM under setting [1] worked out at 57.4%. Also, under setting [2], the inhibition at 10 µM came to 70.3%.
Take `COc1ccc(/C=C/c2nc3sccn3c(=O)c2-c2ccc(C(F)(F)F)cc2)cc1OCC1CC1` [Example 37, 7-[(E)-2-(3-Cyclopropylmethoxy-4-methoxyphenyl)-1-ethenyl]-6-[4-(trifluoromethyl)-phenyl]-5H-[1,3]thiazolo[3,2-a]pyrimidin-5-one]: under setting [1], the inhibition at 1 µM was found to be 39.6%. Besides, the inhibition at 10 µM under setting [2] was 88.1%.
As to `COc1cccc(/C=C/c2nc3sc(C)cn3c(=O)c2-c2ccc(OC(F)(F)F)cc2)c1OCC1CC1` [Example 75, 7-[(E)-2-(2-Cyclopropylmethoxy-3-methoxyphenyl)-1-ethenyl]-2-methyl-6-[4-(trifluoromethoxy)phenyl]-5H-[1,3]thiazolo[3,2-a]pyrimidin-5-one], under setting [1], the inhibition at 1 µM is 86.3% and the IC50 was less than 250 nM. In addition, the inhibition at 10 µM under setting [2] is 90.4%.
Turning to `COc1cccc(/C=C/c2nc3sccn3c(=O)c2-c2ccc(N(C)C)cc2)c1OCC(C)C` [Example 41, 6-(4-Dimethylaminophenyl)-7-[(E)-2-(2-isobutoxy-3-methoxyphenyl)-1-ethenyl]-5H-[1,3]thiazolo[3,2-a]pyrimidin-5-one], under setting [1], the inhibition at 1 µM was determined as 75.5% and the IC50 lay within 250 to 500 nM. The inhibition at 10 µM under setting [2] came out at 84.5%.
As for `COCCOc1c(/C=C/c2nc3sc4ccccc4n3c(=O)c2-c2ccc(C#N)cc2)cccc1OC` [Example 84, 4-(2-{(E)-2-[3-Methoxy-2-(methoxyethoxy)phenyl}-1-ethenyl}-4-oxo-4H-benzo[4,5]-[1,3]thiazolo-[3,2]pyrimidin-3-yl)benzonitrile], under setting [1], the inhibition at 1 µM turned out to be 83.8% and the IC50 is 250 to 500 nM. Under setting [2], the inhibition at 10 µM is 93.7%.
Regarding `O=c1c(-c2ccc(OC(F)(F)F)cc2)c(/C=C/c2cccc(O)c2OCC2CC2)nc2sccn12` [Example 60], under setting [1], the “Percentage inhibition at 1.0 μM” value was determined as 41.32%. Besides, the “Percentage inhibition at 10.0 μM” value under setting [2] amounted to 81.57%.
As for `CCCCOc1c(/C=C/c2nc3sc4ccccc4n3c(=O)c2-c2ccc(C#N)cc2)cccc1OC` [Example 87], the “Percentage inhibition at 1.0 μM” value under setting [1] was found to be 34.44%. Also, the “Percentage inhibition at 10.0 μM” value under setting [2] is listed as 60.79%.
In the case of `COc1cccc(/C=C/c2nc3sccn3c(=O)c2-c2ccc(C(F)(F)F)cc2)c1OCC(C)C` [Example 27, 7-[(E)-2-(2-Isobutoxy-3-methoxyphenyl)-1-ethenyl]-6-[4-(trifluoromethyl)phenyl]-5H-[1,3]thiazolo[3,2-a]pyrimidin-5-one], under setting [1], the inhibition at 1 µM is 69.6% and the IC50 was less than 250 nM. For the same molecule, the inhibition at 10 µM under setting [2] came out at 88%.
`COc1cccc(/C=C/c2nc3sccn3c(=O)c2-c2ccc(OC(F)(F)F)cc2)c1OCCCCF` [Example 56, 4-7-[(E)-2-{2-(4-Fluorobutoxy)-3-methoxyphenyl}-1-ethenyl]-6-[4-(trifluoromethoxy)phenyl]-5H-[1,3]thiazolo[3,2-a]pyrimidin-5-one]: under setting [1], the “Percentage inhibition at 1.0 μM” value was 80.9% and the 50% inhibitory concentration (IC50) lay in the range of 250 to 500 nM. Moreover, the “Percentage inhibition at 10.0 μM” value under setting [2] is given as 93.5%.
Turning to `COc1cccc(/C=C/c2nc3sccn3c(=O)c2-c2ccc(C(F)(F)F)cc2)c1OCC1CC1` [Example 33, {7-[(E)-2-(2-Cyclopropylmethoxy)-3-methoxyphenyl]-1-ethenyl]-6-[4-(trifluoromethyl)phenyl]-5H-[1,3]thiazolo[3,2-a]pyrimidin-5-one], under setting [1], the inhibition at 1 µM was 85.3% and the IC50 is less than 250 nM. Moreover, under setting [2], the inhibition at 10 µM stood at 97.4%.
With `N#CCCCOc1cccc(/C=C/c2nc3sccn3c(=O)c2-c2ccc(OC(F)(F)F)cc2)c1OCC1CC1` [Example 65, 7-{(E)-2-[2-(Cyclopropylmethoxy)-3-(3-cyanopropoxy)phenyl]-1-ethenyl}-6-(4-trifluoromethoxyphenyl)-5H-[1,3]thiazolo[3,2-a]pyrimidin-5-one], under setting [1], the inhibition at 1 µM is 15.4%. Besides, the inhibition at 10 µM under setting [2] worked out at 22%.
Regarding `COc1cccc(/C=C/c2nc3sccn3c(=O)c2-c2ccc(OC(F)(F)F)cc2)c1OCC(C)C` [Example 51, 7-[(E)-2-(2-Isobutoxy-3-methoxyphenyl)-1-ethenyl]-6-[4-(trifluoromethoxy)phenyl]-5H-[1,3]thiazolo[3,2-a]pyrimidin-5-one], under setting [1], the inhibition at 1 µM was found to be 89.1% and the IC50 was less than 250 nM. In addition, under setting [2], the inhibition at 10 µM stood at 95.6%.
